# Reference: patent US20120309739A1, “AKT / PKB INHIBITORS” (ALMAC DISCOVERY LIMITED, priority 2009, published 2012)
# Where a name gives a salt, the structure may show the parent alone.
# Key:
# AKT1 = biological target: T1, AKT1 (Homo sapiens, UniProt P31749); assay: AKT Kinase Assay (IMAP fluorescent polarisation) vs AKT1; assay type: biochemical; settings: activated AKT1, FAM Crosstide substrate
# T1 construct: purchased SignalChem
# Summary of the method: (§1)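 Each activated AKT isoform, at a pre-determined linear-range concentration, was pre-incubated 45 min at room temperature with compound in a fourteen-point half-log series. ATP plus 5′FAM-Crosstide then reacted 1 h; IMAP binding reagent stopped it (1 h). Fluorescence polarisation (ex 485/em 528 nm) versus vehicle gave IC50 by non-linear regression.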
# AKT2 = biological target: T2, AKT2 (Homo sapiens, UniProt P31751); assay: AKT Kinase Assay (IMAP fluorescent polarisation) vs AKT2; assay type: biochemical; settings: activated AKT2, FAM Crosstide substrate
# T2 construct: purchased SignalChem
# T2 sequence (P31751 whole entry): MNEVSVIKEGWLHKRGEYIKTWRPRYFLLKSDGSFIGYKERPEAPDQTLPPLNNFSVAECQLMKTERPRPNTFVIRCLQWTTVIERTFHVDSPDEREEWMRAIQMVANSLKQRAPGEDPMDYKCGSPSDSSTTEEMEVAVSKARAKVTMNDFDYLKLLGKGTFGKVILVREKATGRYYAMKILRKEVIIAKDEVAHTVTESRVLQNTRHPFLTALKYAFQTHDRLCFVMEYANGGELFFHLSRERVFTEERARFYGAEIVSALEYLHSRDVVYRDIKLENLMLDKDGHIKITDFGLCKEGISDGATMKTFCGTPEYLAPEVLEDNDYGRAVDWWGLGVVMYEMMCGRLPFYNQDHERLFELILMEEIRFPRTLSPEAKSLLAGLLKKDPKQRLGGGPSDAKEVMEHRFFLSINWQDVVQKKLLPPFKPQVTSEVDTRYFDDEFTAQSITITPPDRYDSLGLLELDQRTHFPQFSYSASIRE
# Summary of the method: as §1
# AKT3 = biological target: T3, AKT3 (Homo sapiens, UniProt Q9Y243); assay: AKT Kinase Assay (IMAP fluorescent polarisation) vs AKT3; assay type: biochemical; settings: activated AKT3, FAM Crosstide substrate
# T3 construct: purchased SignalChem
# T3 sequence (Q9Y243 whole entry): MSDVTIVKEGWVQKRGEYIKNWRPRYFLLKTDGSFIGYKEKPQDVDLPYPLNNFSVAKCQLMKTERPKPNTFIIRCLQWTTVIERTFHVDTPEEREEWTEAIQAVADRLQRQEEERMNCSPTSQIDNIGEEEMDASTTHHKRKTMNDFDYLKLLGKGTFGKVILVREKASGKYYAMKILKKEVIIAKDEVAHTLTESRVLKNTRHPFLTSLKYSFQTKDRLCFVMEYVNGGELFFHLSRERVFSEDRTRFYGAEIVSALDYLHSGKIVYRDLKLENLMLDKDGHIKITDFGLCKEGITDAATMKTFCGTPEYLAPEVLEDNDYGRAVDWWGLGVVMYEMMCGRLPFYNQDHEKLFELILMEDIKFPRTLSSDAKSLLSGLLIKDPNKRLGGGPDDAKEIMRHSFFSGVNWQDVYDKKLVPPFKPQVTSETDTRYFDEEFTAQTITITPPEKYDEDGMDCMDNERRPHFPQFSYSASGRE
# Summary of the method: as §1
# [1] = test system: PC3 and/or LnCaP cell lines; assay: In vitro cell proliferation assay (Cell Titre Glo); assay type: cell-based; settings: Homo sapiens, 72 hours, read-out: inhibition of proliferation IC50
# Method: Testing of the compounds was also performed using in vitro cell proliferation assays:
# Cell Titre Glo (Promega) is a highly sensitive homogeneous reagent used to determine the viability of cells. The reagent uses a stable form of luciferase to measure ATP as an output of viability. The luminescent values generated in the assay are directly proportional to the number of viable cells in your assay.
# The following materials were used: White, clear bottomed 96 well assay plates (Costar); Cell titre Glo reagents; LnCaP (ECACC) cells grown in RPMI medium (Invitrogen) supplemented with 10 mM HEPES (Invitrogen), 1 mM Sodium pyruvate (Invitrogen), 2 mM L-Glutamine (Invitrogen) and 10% Foetal calf serum (Invitrogen); PC3 (ECACC) cells grown in RPMI medium supplemented with 10% Foetal calf serum (Invitrogen); Trypsin (Invitrogen); PBS (Invitrogen); Biotek Synergy 4 Hybrid Plate reader; 96 well plate shaker (Stuart SSL5); Eppendorf 5414 desk-top centrifuge; Beckman Coulter cell counter Z1 single threshold system.
# Prostate cell lines, PC3 and LnCaP, were washed, detached and re-suspended in their respective fresh media. The cells were pelleted by centrifugation (Eppendorf 5414) and spent supernatant discarded. The cells were re-suspended by vortex mixing, counted and seeded into clear bottom white 96 well plates at a density of 5000 cells per well. The cells were incubated (Sanyo) overnight at 37° C. ([…]/5% CO2), and next day treated with increasing concentrations of test compound formulated in fresh medium. The plates were returned to the incubator for 72 hours.
# Cell Titre Glo (Promega) was prepared by mixing the supplied reagents as per manufacturer's instructions and left to stand at room temperature. The cell plates were removed from the incubator and 80 μl of the Cell Titre Glo solution added to each well. The plate was shaken for five minutes to ensure homogenous mixing of reagents and cells, then left to stand for ten minutes at room temperature.
# The cell viability post compound treatment was determined by the luminescent intensity emitted from the drug treated wells in the plate. In brief, the assay plate was placed in the Biotex Synergy 4 Hybrid plate reader and the luminescence read in each well. The compound treated wells were compared to vehicle treated wells and the % inhibition of cell viability calculated.
# The data was analysed using GraphPad Prism, with IC50 values generated using non-linear regression of the data set.
# AKT phosphorylation = assay: Phosphorylation status of AKT/PI3K pathway via western blotting; assay type: cell-based; settings: for 48 h at 10 μM
# Source text: Analysis of Compound Effects on AKT Signalling Pathways
# Phosphorylation status of various members of the AKT/PI3K pathway were investigated via western blotting.
# Materials Required for this Assay
# 20× Running buffer (Invitrogen); Rainbow marker ladder (GE Healthcare); Reducing buffer (Invitrogen); 20× Transfer buffer (Invitrogen); 4-12% Bis-Tris Gels (Invitrogen); Filter paper (Whatman); Nitrocellulose (Amersham); ECL plus detection reagents (GE Healthcare); Radiographic film (Kodak); Biorad Protein determination reagent (Biorad); AKT pathway signalling antibodies (Cell Signalling)
# LnCaP and PC3 cell lines were washed, detached and re-suspended in fresh medium. They were seeded in 90 mm^2 dishes and incubated overnight ([…]/5% CO2) to allow adherence. […]
# The medium was removed and the cells placed on ice and washed in PBS. […] The resultant supernatant was assayed for protein content using the Bradford method (Biorad) and equal quantities of protein calculated and heated in sample reducing buffer to 95° C. for ten minutes. […]
# The membranes were used to determine difference in total AKT, pSer473 AKT, pGSK3β and total GSK3β (all sourced from Cell Signalling). […] The membranes were washed three times in PBS and incubated with the respective secondary antibodies (Sigma Aldrich) for two hours and the proteins were detected using ECL plus detection reagents (GE Healthcare).
# T1 sequence (P31749 whole entry): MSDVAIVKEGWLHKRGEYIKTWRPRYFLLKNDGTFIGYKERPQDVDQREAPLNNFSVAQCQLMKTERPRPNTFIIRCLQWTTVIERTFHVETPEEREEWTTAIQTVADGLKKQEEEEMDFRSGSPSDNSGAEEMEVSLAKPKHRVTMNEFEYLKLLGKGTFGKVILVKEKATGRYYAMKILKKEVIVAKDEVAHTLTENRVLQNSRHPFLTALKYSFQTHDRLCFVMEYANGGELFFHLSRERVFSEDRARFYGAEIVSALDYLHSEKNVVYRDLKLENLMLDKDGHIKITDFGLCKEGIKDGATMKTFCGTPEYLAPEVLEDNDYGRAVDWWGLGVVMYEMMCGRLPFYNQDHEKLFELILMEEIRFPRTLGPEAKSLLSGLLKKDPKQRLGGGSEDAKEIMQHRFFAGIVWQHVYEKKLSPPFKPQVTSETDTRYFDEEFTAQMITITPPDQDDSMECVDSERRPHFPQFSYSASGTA
Structure (SMILES),IC50 (AKT1) [µM],IC50 (AKT2) [µM],IC50 (AKT3) [µM],IC50 [1] [µM],inhibition of AKT phosphorylation (AKT phosphorylation)
"NC1(c2ccc(-c3oc4ccncc4c3-c3ccccc3)cc2)CCC1 [Example 1, 1-(4-(3-phenylfuro[3,2-c]pyridin-2-yl)phenyl)cyclobutanamine]",1 to 10,1 to 10,1 to 10,< 10,–
"NC1(c2ccc(-c3oc4nccnc4c3-c3ccccc3)cc2)CCC1 [Example 10, 1-(4-(7-Phenylfuro[2,3-b]pyrazin-6-yl)phenyl)cyclobutanamine.HCl]",1 to 10,1 to 10,> 10,< 10,–
"NC1(c2ccc(-c3oc4nc[nH]c(=O)c4c3-c3ccccc3)cc2)CCC1 [Example 12, 6-(4-(1-Aminocyclobutyl)phenyl)-5-phenylfuro[2,3-d]pyrimidin-4(3H)-one]",1 to 10,1 to 10,1 to 10,< 10,–
"CSc1ncc2c(-c3ccccc3)c(-c3ccc(C4(N)CCC4)cc3)oc2n1 [Example 24, 1-(4-(2-(Methylthio)-5-phenylfuro[2,3-d]pyrimidin-6-yl)phenyl)cyclobutanamine]",1 to 10,0.1 to 1,> 10,< 10,–
"COc1nc(N2CCNCC2)nc2oc(-c3ccc(C4(N)CCC4)cc3)c(-c3ccccc3)c12 [Example 37, 1-(4-(4-Methoxy-5-phenyl-2-(piperazin-1-yl)furo[2,3-d]pyrimidin-6-yl)phenyl)cyclobutanamine]",0.1 to 1,0.1 to 1,1 to 10,< 10,–

# The next lines start with results.
IC50 (AKT1) [µM],IC50 (AKT2) [µM],IC50 (AKT3) [µM],IC50 [1] [µM],Structure (SMILES),inhibition of AKT phosphorylation (AKT phosphorylation)
0.1 to 1,0.1 to 1,1 to 10,–,"CSc1nc2oc(-c3ccc(C4(N)CCC4)cc3)c(-c3ccccc3)c2c(=O)[nH]1 [Example 15, 6-(4-(1-Aminocyclobutyl)phenyl)-2-(methylthio)-5-phenylfuro[2,3-d]pyrimidin-4(3H)-one]",inhibition of AKT phosphorylation
≤ 0.1,0.1 to 1,> 10,< 10,"CNc1nc(OC)c2c(-c3ccccc3)c(-c3ccc(C4(N)CCC4)cc3)oc2n1 [Example 32, 6-(4-(1-Aminocyclobutyl)phenyl)-4-methoxy-N-methyl-5-phenylfuro[2,3-d]pyrimidin-2-amine]",–
≤ 0.1,0.1 to 1,> 10,< 10,"COc1nc(OCCO)nc2oc(-c3ccc(C4(N)CCC4)cc3)c(-c3ccccc3)c12 [Example 36, 2-((6-(4-(1-Aminocyclobutyl)phenyl)-4-methoxy-5-phenylfuro[2,3-d]pyrimidin-2-yl)oxy)ethanol]",–
